Source: patent US12408662B2, “Hydrogen peroxide and peracid stabilization with molecules based on a pyridine carboxylic acid” (ECOLAB USA INC., priority 2018, dated 2025)

Assay: Stability of peroxyacetic acid compositions with lower acetic acid relative to hydrogen peroxide (Example 3, FIG. 3)
Format: physicochemical

O=C(O)c1cccnc1 [Niacin, 3-pyridinecarboxylic acid]
stabilization of peroxyacetic acid (in words): comparable to commonly used stabilizers
